In US10231954B2, “Neurodegenerative therapies” (LYTIX BIOPHARMA AS, priority 2014, dated 2019):

Experiments:
Type in all cases: biochemical
CAMK1 = CAMK1 (Homo sapiens, UniProt Q14012); assay: Kinase profiling CAMK1; conditions: for residual kinase activity, CAMK1: 100 micromolar inhibitor concentration, 100 is no change
From the text: (§1) Any value less that 25 is considered to be highly significant inhibition.

Src = Src (Homo sapiens, UniProt P12931); assay: Kinase profiling Src; conditions: for residual kinase activity, Src: 100 micromolar inhibitor concentration, 100 is no change
From the text: as §1

RSK1 = RSK1 (Homo sapiens, UniProt Q15418); assay: Kinase profiling RSK1; conditions: for residual kinase activity, RSK1: 100 micromolar inhibitor concentration, 100 is no change
From the text: as §1

MKK1 = MKK1 (Homo sapiens, UniProt Q02750); assay: Kinase profiling MKK1; conditions: for residual kinase activity, MKK1: 100 micromolar inhibitor concentration, 100 is no change
From the text: as §1

CK2 = assay: Kinase profiling CK2; conditions: 100 micromolar inhibitor concentration; 100 is no change
From the text: as §1

JNK1 = JNK1 (Homo sapiens, UniProt P45983); assay: Kinase profiling JNK1; conditions: for residual kinase activity, JNK1: 100 micromolar inhibitor concentration, 100 is no change
From the text: as §1

PDK1 = molecular target: T1, PDK1 (Homo sapiens, UniProt O15530); assay: Kinase profiling PDK1; conditions: for residual kinase activity, PDK1: 100 micromolar inhibitor concentration, 100 is no change
T1 sequence (O15530 1-556): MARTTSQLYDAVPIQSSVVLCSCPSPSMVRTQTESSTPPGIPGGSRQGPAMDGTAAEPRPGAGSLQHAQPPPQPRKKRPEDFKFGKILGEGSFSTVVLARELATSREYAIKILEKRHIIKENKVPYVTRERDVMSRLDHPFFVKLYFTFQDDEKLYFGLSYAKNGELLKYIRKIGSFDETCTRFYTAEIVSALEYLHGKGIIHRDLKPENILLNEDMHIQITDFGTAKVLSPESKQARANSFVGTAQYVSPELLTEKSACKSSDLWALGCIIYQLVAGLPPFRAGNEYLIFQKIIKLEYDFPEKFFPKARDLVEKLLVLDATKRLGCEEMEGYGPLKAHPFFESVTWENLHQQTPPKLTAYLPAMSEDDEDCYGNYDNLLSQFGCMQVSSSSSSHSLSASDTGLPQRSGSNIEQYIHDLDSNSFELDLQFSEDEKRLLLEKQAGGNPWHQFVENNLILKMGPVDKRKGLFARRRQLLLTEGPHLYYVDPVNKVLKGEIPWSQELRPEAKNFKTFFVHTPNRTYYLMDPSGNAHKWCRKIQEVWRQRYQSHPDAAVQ
From the text: as §1

CHK2 = CHK2 (Homo sapiens, UniProt O96017); assay: Kinase profiling CHK2; conditions: for residual kinase activity, CHK2: 100 micromolar inhibitor concentration, 100 is no change
From the text: as §1

TTK = molecular target: T2, TTK (Homo sapiens, UniProt P33981); assay: Kinase profiling TTK; conditions: for residual kinase activity, TTK: 100 micromolar inhibitor concentration, 100 is no change
T2 sequence (P33981 1-857): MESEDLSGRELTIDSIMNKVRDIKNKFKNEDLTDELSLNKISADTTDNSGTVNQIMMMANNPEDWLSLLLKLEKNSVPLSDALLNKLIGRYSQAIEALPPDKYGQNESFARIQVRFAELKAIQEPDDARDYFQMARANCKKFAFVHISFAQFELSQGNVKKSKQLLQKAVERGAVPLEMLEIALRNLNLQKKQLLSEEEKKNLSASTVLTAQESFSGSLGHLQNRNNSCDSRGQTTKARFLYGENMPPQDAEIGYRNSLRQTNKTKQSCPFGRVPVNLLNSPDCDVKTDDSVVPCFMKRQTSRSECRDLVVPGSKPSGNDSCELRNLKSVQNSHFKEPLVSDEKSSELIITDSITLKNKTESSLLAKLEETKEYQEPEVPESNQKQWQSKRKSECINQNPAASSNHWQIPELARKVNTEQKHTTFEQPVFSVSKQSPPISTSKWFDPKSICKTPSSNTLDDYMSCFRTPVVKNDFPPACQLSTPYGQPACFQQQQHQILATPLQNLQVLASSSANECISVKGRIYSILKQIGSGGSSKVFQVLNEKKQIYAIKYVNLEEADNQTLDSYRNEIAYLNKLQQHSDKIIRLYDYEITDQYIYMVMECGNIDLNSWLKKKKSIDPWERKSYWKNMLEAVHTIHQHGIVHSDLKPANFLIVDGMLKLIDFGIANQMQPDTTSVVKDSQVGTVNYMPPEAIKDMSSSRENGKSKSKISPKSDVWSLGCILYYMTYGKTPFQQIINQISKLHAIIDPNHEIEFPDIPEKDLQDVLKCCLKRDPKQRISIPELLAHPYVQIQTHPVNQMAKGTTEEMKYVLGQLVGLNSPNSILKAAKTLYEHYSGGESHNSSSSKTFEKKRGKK
From the text: as §1

PAK4 = PAK4 (Homo sapiens, UniProt O96013); assay: Kinase profiling PAK4; conditions: for residual kinase activity, PAK4: 100 micromolar inhibitor concentration, 100 is no change
From the text: as §1

TrkA = TrkA (Homo sapiens, UniProt P04629); assay: Kinase profiling TrkA; conditions: for residual kinase activity, TrkA: 100 micromolar inhibitor concentration, 100 is no change
From the text: as §1

PLK1 = PLK1 (Homo sapiens, UniProt P53350); assay: Kinase profiling PLK1; conditions: for residual kinase activity, PLK1: 100 micromolar inhibitor concentration, 100 is no change
From the text: as §1

NEK6 = NEK6 (Homo sapiens, UniProt Q9HC98); assay: Kinase profiling NEK6; conditions: for residual kinase activity, NEK6: 100 micromolar inhibitor concentration, 100 is no change
From the text: as §1

DYRK1A = DYRK1A (Homo sapiens, UniProt Q13627); assay: DYRK 1A assay (kinase profiling); conditions: for residual kinase activity, DYRK1A: 100 micromolar inhibitor concentration, 100 is no change
Method: Assays are stopped by addition of 5 μl of 0.5 M (3%) orthophosphoric acid and then harvested onto P81 Unifilter plates with a wash buffer of 50 mM orthophosphoric acid.
as §1

HER4 = HER4 (Homo sapiens, UniProt Q15303); assay: Kinase profiling HER4; conditions: for residual kinase activity, HER4: 100 micromolar inhibitor concentration, 100 is no change
From the text: as §1

Chain of HER4 (Q15303 26-1308, species assumed): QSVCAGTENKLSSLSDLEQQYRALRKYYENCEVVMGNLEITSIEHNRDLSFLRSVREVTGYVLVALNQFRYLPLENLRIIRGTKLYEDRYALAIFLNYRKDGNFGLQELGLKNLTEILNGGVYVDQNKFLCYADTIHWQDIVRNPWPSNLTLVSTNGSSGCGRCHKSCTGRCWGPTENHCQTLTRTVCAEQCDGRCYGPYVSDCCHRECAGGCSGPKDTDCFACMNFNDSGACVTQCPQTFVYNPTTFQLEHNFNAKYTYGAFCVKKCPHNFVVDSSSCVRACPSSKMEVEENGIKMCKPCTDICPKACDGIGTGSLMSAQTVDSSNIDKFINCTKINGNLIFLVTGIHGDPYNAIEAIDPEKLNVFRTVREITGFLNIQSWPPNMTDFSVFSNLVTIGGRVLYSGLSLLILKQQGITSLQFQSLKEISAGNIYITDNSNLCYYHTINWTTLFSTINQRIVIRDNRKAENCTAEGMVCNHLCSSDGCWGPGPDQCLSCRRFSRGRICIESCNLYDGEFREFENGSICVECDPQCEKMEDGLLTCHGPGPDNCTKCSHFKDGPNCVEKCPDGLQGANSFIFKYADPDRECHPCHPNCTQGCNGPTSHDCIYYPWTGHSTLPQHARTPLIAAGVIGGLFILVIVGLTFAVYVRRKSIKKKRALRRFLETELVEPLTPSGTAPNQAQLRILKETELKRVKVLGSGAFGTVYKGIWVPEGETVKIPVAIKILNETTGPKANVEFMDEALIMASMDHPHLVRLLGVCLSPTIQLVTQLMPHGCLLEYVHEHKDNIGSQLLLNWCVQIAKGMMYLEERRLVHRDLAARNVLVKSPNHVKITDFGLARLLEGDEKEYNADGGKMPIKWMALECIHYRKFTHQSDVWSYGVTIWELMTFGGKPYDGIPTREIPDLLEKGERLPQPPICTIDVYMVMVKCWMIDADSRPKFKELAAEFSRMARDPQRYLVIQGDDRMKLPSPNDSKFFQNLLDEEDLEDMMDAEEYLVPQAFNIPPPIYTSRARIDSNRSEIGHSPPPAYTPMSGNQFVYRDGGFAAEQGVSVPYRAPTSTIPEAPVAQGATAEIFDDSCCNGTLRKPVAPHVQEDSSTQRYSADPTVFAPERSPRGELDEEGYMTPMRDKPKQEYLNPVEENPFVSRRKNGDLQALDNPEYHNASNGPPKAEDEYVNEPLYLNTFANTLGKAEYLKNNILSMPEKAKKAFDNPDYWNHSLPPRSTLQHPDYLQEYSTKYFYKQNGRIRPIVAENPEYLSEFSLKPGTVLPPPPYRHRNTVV
Chain of CAMK1 (Q14012 whole entry, species assumed): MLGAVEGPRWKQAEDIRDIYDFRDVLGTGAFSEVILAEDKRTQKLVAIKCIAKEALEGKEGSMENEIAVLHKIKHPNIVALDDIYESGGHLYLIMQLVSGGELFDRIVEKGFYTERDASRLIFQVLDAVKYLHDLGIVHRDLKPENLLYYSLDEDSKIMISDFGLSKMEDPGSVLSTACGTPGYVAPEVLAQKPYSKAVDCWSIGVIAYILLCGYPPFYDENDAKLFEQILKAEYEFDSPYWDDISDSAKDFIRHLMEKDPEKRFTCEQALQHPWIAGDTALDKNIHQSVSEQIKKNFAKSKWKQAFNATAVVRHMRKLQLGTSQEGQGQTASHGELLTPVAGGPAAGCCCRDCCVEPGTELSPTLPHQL
Chain of MKK1 (Q02750 whole entry, species assumed): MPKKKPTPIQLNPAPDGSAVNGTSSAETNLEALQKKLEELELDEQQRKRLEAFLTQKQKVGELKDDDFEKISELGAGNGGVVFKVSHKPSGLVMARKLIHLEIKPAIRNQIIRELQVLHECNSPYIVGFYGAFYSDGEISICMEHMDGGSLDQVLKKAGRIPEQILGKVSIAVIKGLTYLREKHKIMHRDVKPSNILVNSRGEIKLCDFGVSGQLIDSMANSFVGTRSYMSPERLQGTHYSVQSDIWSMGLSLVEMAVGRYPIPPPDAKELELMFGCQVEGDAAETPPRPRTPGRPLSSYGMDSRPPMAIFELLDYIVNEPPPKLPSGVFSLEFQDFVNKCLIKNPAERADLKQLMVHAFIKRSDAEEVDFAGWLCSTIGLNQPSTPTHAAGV
Chain of NEK6 (Q9HC98 whole entry, species assumed): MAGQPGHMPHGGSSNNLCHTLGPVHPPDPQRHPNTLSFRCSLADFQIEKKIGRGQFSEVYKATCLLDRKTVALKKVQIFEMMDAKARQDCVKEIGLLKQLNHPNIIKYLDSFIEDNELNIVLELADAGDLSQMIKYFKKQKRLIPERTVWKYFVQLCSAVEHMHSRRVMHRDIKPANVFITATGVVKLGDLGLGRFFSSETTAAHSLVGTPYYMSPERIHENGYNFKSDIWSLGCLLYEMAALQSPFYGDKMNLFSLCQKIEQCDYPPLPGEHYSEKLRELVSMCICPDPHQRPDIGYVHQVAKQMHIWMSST
Chain of CHK2 (O96017 whole entry, species assumed): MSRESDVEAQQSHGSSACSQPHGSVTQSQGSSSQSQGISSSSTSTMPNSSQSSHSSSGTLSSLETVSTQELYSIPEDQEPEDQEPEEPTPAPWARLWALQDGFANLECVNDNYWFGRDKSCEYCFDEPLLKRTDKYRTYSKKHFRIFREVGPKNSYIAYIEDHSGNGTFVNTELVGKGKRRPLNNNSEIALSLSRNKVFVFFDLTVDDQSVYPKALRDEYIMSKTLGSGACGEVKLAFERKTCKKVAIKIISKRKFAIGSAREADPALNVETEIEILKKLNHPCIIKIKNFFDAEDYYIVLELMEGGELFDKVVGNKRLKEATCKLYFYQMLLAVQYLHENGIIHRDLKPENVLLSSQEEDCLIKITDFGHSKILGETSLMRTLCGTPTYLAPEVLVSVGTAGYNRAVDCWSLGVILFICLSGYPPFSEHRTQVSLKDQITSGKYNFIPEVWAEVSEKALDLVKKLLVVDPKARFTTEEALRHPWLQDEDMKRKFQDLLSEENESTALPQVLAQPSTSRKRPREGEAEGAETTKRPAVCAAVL
Chain of RSK1 (Q15418 whole entry, species assumed): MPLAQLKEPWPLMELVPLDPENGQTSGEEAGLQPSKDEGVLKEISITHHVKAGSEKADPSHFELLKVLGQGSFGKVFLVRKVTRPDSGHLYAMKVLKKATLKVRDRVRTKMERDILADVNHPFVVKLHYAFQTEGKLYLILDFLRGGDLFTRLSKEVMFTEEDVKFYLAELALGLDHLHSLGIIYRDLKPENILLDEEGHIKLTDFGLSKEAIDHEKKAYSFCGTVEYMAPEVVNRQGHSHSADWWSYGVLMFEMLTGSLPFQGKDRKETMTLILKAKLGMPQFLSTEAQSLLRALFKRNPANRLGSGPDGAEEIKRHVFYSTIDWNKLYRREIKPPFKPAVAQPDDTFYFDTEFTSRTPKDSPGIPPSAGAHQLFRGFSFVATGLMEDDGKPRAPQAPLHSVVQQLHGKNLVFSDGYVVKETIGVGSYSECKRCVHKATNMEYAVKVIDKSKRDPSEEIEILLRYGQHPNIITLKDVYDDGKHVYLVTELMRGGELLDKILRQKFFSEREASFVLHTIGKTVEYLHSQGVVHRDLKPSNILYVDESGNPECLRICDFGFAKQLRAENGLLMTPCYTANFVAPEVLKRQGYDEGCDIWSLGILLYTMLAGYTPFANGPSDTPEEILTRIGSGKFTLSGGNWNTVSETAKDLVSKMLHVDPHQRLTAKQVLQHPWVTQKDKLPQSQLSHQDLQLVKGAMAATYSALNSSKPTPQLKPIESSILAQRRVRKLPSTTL
Chain of JNK1 (P45983 whole entry, species assumed): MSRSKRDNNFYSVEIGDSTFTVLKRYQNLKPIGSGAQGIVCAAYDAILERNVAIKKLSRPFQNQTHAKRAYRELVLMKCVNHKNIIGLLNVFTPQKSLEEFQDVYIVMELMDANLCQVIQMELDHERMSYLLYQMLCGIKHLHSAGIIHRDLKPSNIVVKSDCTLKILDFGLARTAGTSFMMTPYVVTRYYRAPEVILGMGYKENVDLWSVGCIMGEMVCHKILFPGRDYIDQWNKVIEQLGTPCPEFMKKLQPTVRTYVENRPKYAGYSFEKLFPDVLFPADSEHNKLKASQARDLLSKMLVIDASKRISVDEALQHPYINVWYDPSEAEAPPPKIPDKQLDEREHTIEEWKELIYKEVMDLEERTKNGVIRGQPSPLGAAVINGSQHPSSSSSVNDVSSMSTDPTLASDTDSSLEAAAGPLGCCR
Chain of TrkA (P04629 33-796, species assumed): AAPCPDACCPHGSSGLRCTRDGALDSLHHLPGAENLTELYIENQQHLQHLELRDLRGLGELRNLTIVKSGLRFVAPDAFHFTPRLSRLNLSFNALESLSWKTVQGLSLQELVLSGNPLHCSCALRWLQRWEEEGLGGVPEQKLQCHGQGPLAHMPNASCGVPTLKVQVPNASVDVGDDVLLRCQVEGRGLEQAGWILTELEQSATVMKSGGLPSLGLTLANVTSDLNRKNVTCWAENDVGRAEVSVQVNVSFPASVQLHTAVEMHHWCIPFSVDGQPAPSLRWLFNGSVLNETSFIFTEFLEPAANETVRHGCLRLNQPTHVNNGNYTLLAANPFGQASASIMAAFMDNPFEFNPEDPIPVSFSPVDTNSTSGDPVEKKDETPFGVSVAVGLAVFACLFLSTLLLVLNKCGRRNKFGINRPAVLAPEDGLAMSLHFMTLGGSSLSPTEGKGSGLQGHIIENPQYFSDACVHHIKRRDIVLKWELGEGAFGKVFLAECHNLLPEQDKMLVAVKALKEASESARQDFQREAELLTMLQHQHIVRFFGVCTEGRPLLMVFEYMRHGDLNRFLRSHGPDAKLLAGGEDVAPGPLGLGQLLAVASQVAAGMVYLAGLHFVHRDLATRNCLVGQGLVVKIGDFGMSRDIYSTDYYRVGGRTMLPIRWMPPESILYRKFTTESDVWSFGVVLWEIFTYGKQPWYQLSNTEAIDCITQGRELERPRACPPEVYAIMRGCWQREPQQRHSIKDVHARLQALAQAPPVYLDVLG

SMILES | residual kinase activity, CAMK1 (CAMK1) | residual kinase activity, Src (Src) | residual kinase activity, RSK1 (RSK1) | residual kinase activity, MKK1 (MKK1) | residual kinase activity, CK2 (CK2) | residual kinase activity, JNK1 (JNK1) | residual kinase activity, PDK1 (PDK1) | residual kinase activity, CHK2 (CHK2) | residual kinase activity, TTK (TTK) | residual kinase activity, PAK4 (PAK4) | residual kinase activity, TrkA (TrkA) | residual kinase activity, PLK1 (PLK1) | residual kinase activity, NEK6 (NEK6) | residual kinase activity, DYRK1A (DYRK1A) | residual kinase activity, HER4 (HER4) | other results
O=C(Nc1nc2ccc(F)cc2s1)c1ccccc1 [Compound 03-92] | 97 | 74 | 79 | 93 | 90 | 94 | 91 | 80 | 47 | 111 | 74 | 92 | 106 | 11 | 90 | –
CC(=O)Nc1nc2ccc(F)cc2s1 [Compound 03-94] | 86 | 76 | 85 | 76 | 91 | 82 | 87 | 74 | 37 | 66 | 58 | 93 | 92 | 12 | 101 | –
COc1ccc2sc(NC(=O)c3ccccc3)nc2c1 [Compound 03-95] | 76 | 77 | 64 | 92 | 78 | 90 | 89 | 98 | 71 | 107 | 35 | 77 | 86 | 30 | 81 | –
COc1ccc2nc(NC(=O)c3ccccc3)sc2c1 [Compound 03-98] | 68 | 172 | 74 | 105 | 88 | 95 | 101 | 37 | 18 | 37 | 60 | 102 | 94 | 6 | 73 | –
O=C(Nc1nc2ccc(C(F)(F)F)cc2s1)c1ccccc1 [Compound 03-99] | 84 | 87 | 92 | 87 | 80 | 86 | 84 | 94 | 32 | 154 | 84 | 112 | 94 | 9 | 85 | –
O=C(Nc1nc2cc(O)ccc2s1)c1ccccc1 [Compound 03-102] | 72 | 30 | 41 | 52 | 75 | 83 | 74 | 26 | 30 | 67 | 38 | 83 | 112 | 6 | 45 | –
COC(=O)c1cccc(C(=O)Nc2nc3ccc(C(F)(F)F)cc3s2)c1 [Compound 03-105, Methyl 3-((6-(trifluoromethyl)benzo[d]thiazol-2-yl)carbamoyl)benzoate] | – | – | – | – | 89 | – | – | – | – | – | – | – | – | – | – | remaining activity at 100 µM (CAMK1; read-out: residual kinase activity, CAMK1): 92%; remaining activity at 100 µM (Src; read-out: residual kinase activity, Src): 165%; remaining activity at 100 µM (RSK1; read-out: residual kinase activity, RSK1): 87%; remaining activity at 100 µM (MKK1; read-out: residual kinase activity, MKK1): 86%; remaining activity at 100 µM (JNK1; read-out: residual kinase activity, JNK1): 84%; remaining activity at 100 µM (PDK1; read-out: residual kinase activity, PDK1): 87%; remaining activity at 100 µM (CHK2; read-out: residual kinase activity, CHK2): 89%; remaining activity at 100 µM (TTK; read-out: residual kinase activity, TTK): 9%; remaining activity at 100 µM (PAK4; read-out: residual kinase activity, PAK4): 89%; remaining activity at 100 µM (TrkA; read-out: residual kinase activity, TrkA): 82%; remaining activity at 100 µM (PLK1; read-out: residual kinase activity, PLK1): 101%; remaining activity at 100 µM (NEK6; read-out: residual kinase activity, NEK6): 90%; remaining activity at 100 µM (DYRK1A; read-out: residual kinase activity, DYRK1A): 2%; remaining activity at 100 µM (HER4; read-out: residual kinase activity, HER4): 122%
N#Cc1ccc2nc(NC(=O)c3ccccc3)sc2c1 [Compound 03-106] | 69 | 85 | 96 | 58 | 12 | 84 | 106 | 62 | 42 | 94 | 66 | 103 | 97 | 3 | 82 | –
COC(=O)c1cccc(C(=O)Nc2nc3cc(OC)ccc3s2)c1 [Compound 03-108] | 96 | 169 | 70 | 94 | 97 | 93 | 101 | 65 | 94 | 100 | 85 | 96 | 93 | 51 | 99 | –
COC(=O)c1cccc(C(=O)Nc2nc3ccc(F)cc3s2)c1 [Compound 03-110] | 99 | 178 | 70 | 70 | 86 | 98 | 123 | 51 | 35 | 83 | 111 | 108 | 87 | 13 | 107 | –
